Where two headings read alike, the source gives them in different places.
How the values were obtained:
hypothalamic AMPK = test: Phospho-AMPK in hypothalamic slices by Western blotting; format: cell-based, mice; conditions: 30 min; for effect on hypothalamic phospho-AMPK: various concentrations; for levels of phospho-AMPK: 500 nM drug
Description: FIGS. 1A-1F. AAPDs activate AMPK in hypothalamic slices.
The slices were dispersed in artificial cerebrospinal fluid buffer.

α2-AMPK = α2-AMPK activity in tissue lysates of intact mice; format: in vivo; conditions: leptin 3 mg/kg
Method: (§1) FIGS. 2A-2D. AAPDs activate AMPK in intact animals. […] Hypothalami were removed and tissue lysates analyzed for phospho-AMPK or α2-AMPK activity. […] Different parts of brain were isolated and α2-AMPK activity was assayed. Bars represent the mean±SE of three independent lysates performed in triplicate. (* Student's t-test, n=5)
(§2) Experiments were done at age 8-10 weeks. All drugs were administered by i.p. injection. […] Procedures were approved by guidelines of the Johns Hopkins University School of Medicine Institutional Animal Care and Use Committee.

AMPK = test: Phospho-AMPK in tissues of intact mice by Western blotting; format: in vivo; conditions: for stimulation of hypothalamic phospho-AMPK in intact animals: triprolidine 3 mg/kg i.p., 3 h
Method: as §1
FIGS. 5A-5F. […] Cerebellum and liver were removed and phosphorylated AMPK (AMPK-P) detected by western blotting. Each lane represents tissue from individual mouse. […] Hypothalamus, cerebellum and liver were removed and phosphorylated AMPK (AMPK-P) detected by western blotting. Each lane represents a tissue from individual mouse. […] Hypothalamus and cerebellum were removed and phosphorylated AMPK (AMPK-P) detected by western blotting. Each lane represents a tissue from individual mouse. […] Hypothalami were removed and phosphorylated AMPK (AMPK-P) detected by western blotting. Each lane represents a tissue from an individual mouse. […] Hypothalami were removed and AMPK activity monitored as described in Material and Methods. Bars represent the mean±SE of three independent lysates performed in triplicate.
as §2
All drugs were purchased from Toronto Research Chemicals Inc. (Toronto, Canada). […] The drug was diluted with 8.5 ml saline solution, and the appropriate doses were administrated to mice. For control mice, the same solution was injected without a drug. For in vitro assays, drugs were dissolved in DMSO.

histamine H1 receptors = molecular target: T1, histamine H1 receptors (Rattus norvegicus, UniProt P31390); test: Histamine H1 receptor binding, [3H]mepyramine displacement in rat brain membranes; conditions: 12 concentrations 30 pM to 10 μM, means of 3 determinations
T1 construct: from tissue; host or cells: rat forebrain membranes
Method: Receptor binding was assayed using rat brain membranes incubated with [^3H]mepyramine and 12 concentrations of drugs ranging from 30 pM to 10 μM in triplicate. […] Hypothalamic Slices
Briefly, rats were killed by decapitation and the forebrains removed. Brains were homogenized in 30 vol of Na-K phosphate buffer, pH 7.5, and centrifuged at 48,000×g for 10 min. The tissue was resuspended in buffer and re-centrifuged for an additional 3 times. Tissue was resuspended in buffer at 15 mg/ml.
Tissue (0.2 ml) was added to tubes containing 25 μl of drug and 25 μl of [3H]mepyramine (30 nM). Non-specific binding was determined in the presence of 1 μM triprolidine.

phospho-AMPK = conditions: ziprasidone 3 mg/kg i.p., 3 h
Method: Immunohistochemistry was performed with an antibody specific for phospho-AMPK. (FIG. 4D) Quantification of immunohistochemistry. Bars represent the mean±SE of five independent slides. (*p<0.005, **p<0.001 Student's t-test, n=5)
C57BL/6 mice or HR1−/− mice (8-10 weeks) were perfused with 4% paraformaldehyde maintained at 37° C. Organs were post-fixed 2 h at room temperature and cryoprotected overnight at 4° C. (30% sucrose in PBS). Free-floating sections (45 μm) were quenched with 3% H2O2 in water for 10 min at room temperature, washed in TBS-T (16 mM Tris pH 7.4, 140 mM sodium chloride, and 0.1% tween-20), and antigen retrieved for 30 min in a 70° C. water bath (10 mM sodium citrate in TBS-T). Sections were blocked (5% NGS in TBS-T) for 1 h at room temperature and incubated with a mouse anti-phospho-AMPKα antibody (Cell Signaling, Danvers, Mass.) diluted 1:200 into the blocking solution overnight at 4° C. Subsequent washes were conducted in TBST, and labeling was visualized with the Vectastain Elite ABC kit (Vector Laboratories, Burlingame, Calif.). Images were quantified with AlphaEaseFC program.

T1 sequence (P31390 whole entry): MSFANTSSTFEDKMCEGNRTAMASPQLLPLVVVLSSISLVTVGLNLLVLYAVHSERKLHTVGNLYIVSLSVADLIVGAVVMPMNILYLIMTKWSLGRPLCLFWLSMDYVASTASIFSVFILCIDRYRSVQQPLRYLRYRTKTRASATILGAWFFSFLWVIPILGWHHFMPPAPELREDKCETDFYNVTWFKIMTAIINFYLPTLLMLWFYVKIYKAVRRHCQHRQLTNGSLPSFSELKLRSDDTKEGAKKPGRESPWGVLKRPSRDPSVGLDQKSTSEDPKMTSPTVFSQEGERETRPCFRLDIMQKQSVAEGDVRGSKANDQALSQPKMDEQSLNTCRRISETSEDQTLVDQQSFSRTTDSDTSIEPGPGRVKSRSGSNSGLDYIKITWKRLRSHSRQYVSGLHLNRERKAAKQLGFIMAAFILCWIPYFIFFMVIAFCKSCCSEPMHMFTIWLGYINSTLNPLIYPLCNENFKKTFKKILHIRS

Compound: NCCc1c[nH]cn1 [histamine]
- effect of histamine on phospho-AMPK (hypothalamic AMPK; different concentrations of histamine): decreases

Compound: leptin
- hypothalamic AMPK catalytic activity (α2-AMPK): reduces
- hypothalamic phospho-AMPK (AMPK; intact mice, leptin 3 mg/kg): reduces
- effect on hypothalamic phospho-AMPK (hypothalamic AMPK): reductions

Compound: insulin
- effect on hypothalamic phospho-AMPK (hypothalamic AMPK): reductions

Compound: Cc1ccc(/C(=C\CN2CCCC2)c2ccccn2)cc1 [triprolidine]
- stimulation of hypothalamic phospho-AMPK in intact animals (AMPK): to the same extent as clozapine
- stimulation of hypothalamic phospho-AMPK in intact animals (AMPK; listed as Triprolidine): activates
- stimulation of phospho-AMPK (hypothalamic AMPK; triprolidine 50 or 500 nM vs clozapine 200 nM): to the same extent as clozapine

Compound: Cc1nc2n(c(=O)c1CCN1CCC(c3noc4cc(F)ccc34)CC1)CCCC2 [Risperidone]
- levels of phospho-AMPK (hypothalamic AMPK): fail to stimulate

Compound: O=C1CCc2ccc(OCCCCN3CCN(c4cccc(Cl)c4Cl)CC3)cc2N1 [Aripipirazole]
- IC50 (histamine H1 receptors): > 3000 nM
- levels of phospho-AMPK (hypothalamic AMPK): fail to stimulate

Compound: O=C1Cc2cc(CCN3CCN(c4nsc5ccccc45)CC3)c(Cl)cc2N1 [Ziprasidone]
- IC50 (histamine H1 receptors): 150 nM
- phospho-AMPK in the paraventricular nucleus / hypothalamus (phospho-AMPK): fails to alter
- phospho-AMPK in the paraventricular nucleus / hypothalamus (phospho-AMPK; listed as Ziprasodine): no effect
- levels of phospho-AMPK (hypothalamic AMPK): fail to stimulate

Compound: O=C(CCCN1CCC(O)(c2ccc(Cl)cc2)CC1)c1ccc(F)cc1 [Haloperidol]
- levels of phospho-AMPK (hypothalamic AMPK): fail to stimulate

— patent US8148095B2, “Methods for predicting psychotropic drugs which elicit weight gain” (The Johns Hopkins University, priority 2006, dated 2012)
